{
  "source": "patent US20060154984A1",
  "about": "“Therapeutic use of acyl glycerols and the nitrogen- and sulphur- containing analogues thereof” (priority 2003, published 2006)",
  "key": {"[1]": {"test": "Plasma lipids in Sprague Dawley rats according to the formulation used", "type": "in vivo, rat", "details": "gavage every day for 15 days, with Cremophor RH40 compared with CMC and Solutol HS15", "method": "A 0.5% (mN) solution of CMC was prepared in water and mixed with 0.1% (VN) Tween 80, then stirred overnight. The inventive compounds were then added and dissolved by stirring and ultrasonication for 30 minutes at 60° C.\nThe emulsion comprising an inventive compound and a surfactant, Cremophor® RH40 (Polyoxyl 40 Hydrogenated Castor Oil) or Solutol® HS15 (polyethylene glycol 660 12-hydroxystearate) was prepared as follows: the inventive compound was dissolved in a solution of Cremophor® RH40 or Solutol® HS15 previously heated in a water-bath at 60° C. in a ratio for example of 6:1 (m/m). The mixture was placed in a water-bath at 60° C. until a homogeneous mixture was obtained. Said mixture was then dispersed by ultrasonication for 20 minutes at 60° C., at which time the solution became translucid. While stirring, water (MilliQ) preheated at 60° C. was added to the solution to give the desired concentration of the compound. The solution was then mixed on a Vortex® mixer, returned to the water-bath (60° C.) and optionally dispersed by ultrasonication for 30 minutes.\nTo this end, the compounds were administered by gavage to Sprague Dawley rats every day for 15 days. […]"}, "LDL": {"system": "LDL", "test": "LDL oxidation by copper, conjugated diene formation (OD 234 nm)", "type": "biochemical", "details": "10^−4 M", "method": "Oxidation of LDL is an important modification which plays a major role in the onset and development of atherosclerosis (Jurgens, Hoff et al. 1987). […] Unless otherwise indicated, all reagents were from Sigma (St Quentin, France).\nLDL were prepared as described by Lebeau et al. (Lebeau, Furman et al. 2000). The solutions of the test compounds were prepared at 10^−2 M in ethanol and diluted in PBS so that the final concentration ranged from 0.1 to 100 μM with a total ethanol concentration of 1% (VN).\nBefore oxidation, EDTA was removed from the LDL preparation by dialysis. The oxidation reaction was then carried out at 30° C. by adding 100 μl of 16.6 μM CuSO4 to 800 μl of LDL (125 μg protein/ml) and 100 μl of a test compound solution. The formation of dienes, the species to be followed, was measured by the optical density at 234 nm in the samples treated with the compounds in the presence or absence of copper. Optical density at 234 nm was measured every 10 minutes for 8 hours on a thermostated spectrophotometer (Kontron Uvikon 930). The analyses were carried out in triplicate. A compound was considered to have antioxidant activity when it shifted the lag phase latency relative to the control sample. […] FIG. 4 presents an example of the results obtained with the inventive compounds."}, "[2]": {"system": "6-OHDA-induced dopaminergic lesion", "test": "Rat model of Parkinson's disease (6-OHDA), behavioral sensitization to apomorphine", "type": "in vivo", "details": "Wistar rats, 300 mg/kg per day in diet, 7 days before and 15 days after 6-OHDA lesion", "method": "(§1) Adult male Wistar rats (280-300 g) were maintained on a 12-hour light/dark cycle at a constant temperature of 20±3° C. Animals had access to food and water ad libitum and weight gain was recorded.\n(§2) Animals were fed a normal diet or a diet supplemented with the inventive compounds (300 mg/kg per day) for 7 days before induction of the dopaminergic lesion and for 15 days after induction of same.\n6-hydroxydopamine (6-OHDA) is a neurotoxin taken up by dopaminergic neurons via a dopamine transporter. Injection of said compound into striatonigral projections induces selective destruction of dopaminergic neurons, and has allowed the development of many animal models of Parkinson's disease (Bordet et al., 2000).\n(§3) Seven days after commencement of treatment with the inventive compounds, the rats were stereotactically injected with 6-OHDA (4 μg for 8 min) or buffer (sham rats) in the left part of the median tract of the telencephalon to induce striatonigral denervation.\nApomorphine is a dopaminergic agonist which stimulates D1 and D2 receptors. The intensity of rotational behavior is an index allowing to measure the severity of the striatonigral lesion. At the end of the treatment, rats received an intraperitoneal injection of apomorphine and rotational behavior was evaluated 15 minutes after sensitization and for a 10 minute period."}, "dopaminergic neurons": {"system": "dopaminergic neurons", "test": "Rat model of Parkinson's disease (6-OHDA), immunohistochemistry with anti-TH antibody", "type": "in vivo", "details": "Wistar rats, 300 mg/kg per day in diet, 6-OHDA lesion; versus rats fed a normal diet", "method": "as §1, §2, §3\nTyrosine hydroxylase (TH) is an enzyme which catalyzes the transformation of tyrosine to […]. It is used to label dopaminergic neurons. After the apomorphine sensitization test, the animals were sacrificed and the brains were removed. Brain slices were incubated with anti-TH antibody (SCBT, Santa Cruz, Calif.) and then with a second biotinylated antibody. Visualization was with the ABC staining system kit (Tebu) according to the supplier's instructions.\nViable cells labelled with anti-TH antibody (TH+ cells) were counted. […]"}},
  "data": [
    {"molecule": "CCCCCCCCCCCCCCSCC(=O)OCC(COC(=O)CSCCCCCCCCCCCCCC)OC(=O)CSCCCCCCCCCCCCCC", "note": "[Ex 4a, 1,2,3-tritetradecylthioacetylglycerol]", "values": [
      {"measurement": "plasma triglycerides", "setting": "[1]", "result": "larger decrease"},
      {"measurement": "total plasma cholesterol", "setting": "[1]", "result": "larger decrease"},
      {"measurement": "LDL oxidation rate (rate of conjugated diene formation)", "setting": "LDL; copper alone 3 nmol/min/mg of LDL", "result": "1 nmol/min/mg of LDL"},
      {"measurement": "decrease in the maximum amount of conjugated dienes formed", "setting": "LDL; copper alone 496 nmol per mg of LDL", "result": 60, "unit": "%"},
      {"measurement": "lag phase for conjugated diene formation", "setting": "LDL; copper alone 104 minutes", "result": 270, "unit": "min"},
      {"measurement": "decrease in the oxidation rate", "setting": "LDL; relative to copper alone", "result": 66, "unit": "%"},
      {"measurement": "increase in the lag phase", "setting": "LDL; relative to copper alone", "result": 160, "unit": "%"},
      {"measurement": "number of apomorphine-induced rotations", "setting": "[2]", "result": "prophylactic and curative properties"},
      {"measurement": "number of neurons labelled with anti-tyrosine hydroxylase (TH+ neurons)", "setting": "dopaminergic neurons", "result": "greater number of neurons"}
    ]}
  ]
}
